Consider 18 molecules from ChEMBL document CHEMBL4138122, “Azaphenothiazines - promising phenothiazine derivatives. An insight into nomenclature, synthesis, structure elucidation and biological properties” (Eur J Med Chem, 2017).

In brackets after ≈: the same amount, converted by molar mass.

Usually IC50 stands for the concentration that gives 50% inhibition. In general, inhibition in vivo refers to the percentage by which the read-out fell short of the control. As a reminder, the inhibition is the relative decrease from the control value, in per cent.

Data set [1] relates to Aspergillus niger. As to the kind of experiment: Antifungal activity against Aspergillus niger by CLSI protocol based method. It counts as functional.
The next data set concerns Candida albicans. As to the kind of experiment: microbe, parasite or virus in culture.
In data set [2] the test system is Aspergillus niger. The experiment in a line: Antifungal activity against Aspergillus niger. It counts as functional.
The subject of a further data set is Hs-578T. The experiment in a line: Cytotoxicity against human Hs578T cells assessed as cell growth inhibition after 48 hrs by SRB assay. It is filed as functional, cell-based.
A further data set concerns 786-0. The experiment in a line: Cytotoxicity against human 786-O cells assessed as cell growth inhibition after 48 hrs by SRB assay. It counts as functional, cell-based. To be noted: 786-0, 48 h. (In general: In SRB staining, fixed cells bind dye roughly in proportion to their protein.)
In a further data set the test system is SNB-75. The experiment in a line: Cytotoxicity against human SNB75 cells assessed as cell growth inhibition after 48 hrs by SRB assay. It is filed as functional, cell-based. The conditions noted are these: SNB-75, 48 h.
The test system of data set [3] is Rattus norvegicus. As to the kind of experiment: Anti-asthmatic activity in rat assessed as inhibition of egg albumin-induced duration of symptoms of dyspnoea at 5 mg/kg, po administered 90 mins prior to dyspnoea induction. It is filed as functional.
Data set [4] relates to Rattus norvegicus. As to the kind of experiment: Anti-asthmatic activity in rat assessed as inhibition of egg albumin-induced duration of symptoms of dyspnoea at 3 mg/kg, po administered 90 mins prior to dyspnoea induction. It counts as functional.
Data set [5] is described as follows: Inhibition of LTB4 formation in rat polymorphonuclear leukocytes preincubated for 2 mins followed by A-23187 addition after 4 mins. It counts as functional, cell-based.
The species named for data set [6] is Rattus norvegicus. The experiment in a line: Antioxidant activity in albino rat assessed as inhibition of catalase induced H2O2 production. It is filed as functional.
The target of a further data set is Lipoxygenase (Glycine max, UniProt Q39829). The experiment in a line: Inhibition of soybean lipoxygenase.
Data set [7] deals with Staphylococcus aureus. As to the kind of experiment: Antibacterial activity against methicillin-resistant Staphylococcus aureus. It counts as functional.
The test system of another data set is Salmonella typhimurium. As to the kind of experiment: Antibacterial activity against Salmonella typhimurium. It counts as functional, Salmonella enterica subsp. enterica serovar Typhimurium. The conditions noted are these: Salmonella enterica.
In the next data set the test system is HOP-92. As to the kind of experiment: Cytotoxicity against human HOP92 cells assessed as cell growth inhibition after 48 hrs by SRB assay. It is filed as functional, cell-based. The conditions noted are these: HOP-92, 48 h.
The subject of data set [8] is MCF7. The experiment in a line: Cytotoxicity against human MCF7 cells assessed as cell growth inhibition after 48 hrs by SRB assay. To be noted: MCF7, 48 h. It is filed as functional, cell-based.
Data set [9] can be described thus: Antioxidant activity assessed as H2O2 scavenging activity. It counts as functional. The conditions noted are these: dose or concentration not given here.
A further data set has as its system Bacillus cereus. The experiment in a line: Antibacterial activity against Bacillus cereus. It is filed as functional, organism-based.
The subject of another data set is Escherichia coli. As to the kind of experiment: Antibacterial activity against Escherichia coli. To be noted: Escherichia coli. It counts as functional.
The test system of the next data set is Bacillus subtilis. The experiment in a line: Antibacterial activity against Bacillus subtilis. It counts as functional. To be noted: Bacillus subtilis.
Data set [10] deals with Staphylococcus aureus. As to the kind of experiment: Antibacterial activity against Staphylococcus aureus. It is filed as functional. To be noted: Staphylococcus aureus; read-out: MIC.
A further data set relates to C32. As to the kind of experiment: Cytotoxicity against human C32 cells incubated for 72 hrs by WST1 dye based assay. It counts as functional, cell-based. To be noted: C32, 72 h. In general terms: Tetrazolium assays rely on reduction of a dye to a coloured formazan, in cell work by metabolically active cells.
Data set [11] concerns MCF7. The experiment in a line: Cytotoxicity against human MCF7 cells incubated for 72 hrs by WST1 dye based assay. It is filed as functional, cell-based. The conditions noted are these: MCF7, 72 h.
In the next data set the test system is SNB-19. The experiment in a line: Cytotoxicity against human SNB19 cells incubated for 72 hrs by WST1 dye based assay. It is filed as functional, cell-based. The conditions noted are these: SNB-19, 72 h.
The next data set deals with HFF-1. As to the kind of experiment: Cytotoxicity against human HFF1 cells incubated for 72 hrs by WST1 dye based assay. It is filed as cell-based. To be noted: HFF-1, 72 h.
The next data set deals with T47D. As to the kind of experiment: Cytotoxicity against human T47D cells. It counts as functional, cell-based.
For a further data set, the system named is Ancylostoma caninum. The experiment in a line: Anthelmintic activity against dog hookworm larvae infected in mouse assessed as protection against infection rate at 0.06%. It counts as functional.
A short description of data set [12]: Inhibition of lipoxygenase in rat peritoneal cavity resident cells.
Data set [13] is described as follows: Toxicity in rat assessed as survival rate at 50 mg/kg. It is filed as organism-based. To be noted: in vivo.
In data set [14] the test system is Rattus norvegicus. The experiment in a line: Antiinflammatory activity in rat assessed as inhibition of yeast-induced foot edema at 60 mg/kg. It counts as functional.
The subject of another data set is Trachea. As to the kind of experiment: Inhibition of egg albumin antigen challenge-induced contraction response in methacholine-primed guinea pig trachea at 3 ug/ml. It is filed as functional. To be noted: Cavia porcellus.

Description for Candida albicans: Antimicrobial activity against Candida albicans

On to `CC(=O)N1CCN(c2ccc(OCC3COC(Cn4ccnc4)(c4ccc(Cl)cc4Cl)O3)cc2)CC1` (configuration not stated) [KETOCONAZOLE], for which the figures for the MIC with Aspergillus niger [1], against Candida albicans and in the data set with Aspergillus niger [2] were 136 µg/mL (≈ 255 µM), 62.2 µg/mL (≈ 117 µM) and 136 µg/mL (≈ 255 µM), respectively.
`Cc1ccc(S(=O)(=O)NCCN2c3nc4ccccc4cc3Sc3cc4ccccc4nc32)cc1`: the IC50 in the data set on Hs-578T is 1700 nM; in the data set on 786-0, 480 nM; in the data set on SNB-75, 1700 nM.
Take `CN1c2ccc(O)c(Cl)c2Sc2nccnc21`: the inhibition in vivo at 5 mg/kg in the data set on Rattus norvegicus [3] amounted to 47%. The inhibition in vivo at 3 mg/kg in the data set with Rattus norvegicus [4] stood at 43%. In [5], this molecule showed an IC50 of 0.05 to 1 µg/mL (≈ 0.188 to 3.76 µM).
As to `O=C1O[C@H]([C@@H](O)CO)C(O)=C1O` [ASCORBIC ACID], the “inhibition (INH)” value in the data set listed under Rattus norvegicus [6] amounted to 71.9%.
Regarding `CCCc1nc(N2CCN(C)CC2)nc2c1Nc1ccccc1S2`, on Lipoxygenase, the IC50 is 8900 nM.
Turning to `COc1ccc2c(c1)Sc1c(F)cc3c(=O)c(C(=O)O)cn(C4CC4)c3c1N2`, the figures for the MIC against Staphylococcus aureus [7] and with Salmonella typhimurium were 25 µg/mL (≈ 62.7 µM) and 6 µg/mL (≈ 15.1 µM), respectively.
Take `CCN(CC)CCN1c2nc3ccccc3cc2Sc2cc3ccccc3nc21`: the IC50 with HOP-92 and in the data set on MCF7 [8] was ≤ 1000 nM throughout.
As to `O=C1C(c2ccc(Br)cc2)=C2Sc3cccnc3NC2c2ccccc21` (configuration not stated), in [9], the inhibition was < 100%.
`Cc1ccc2c(c1)Sc1c(F)cc3c(=O)c(C(=O)O)cn(C4CC4)c3c1N2`: the MIC against Bacillus cereus, with Staphylococcus aureus [7], in the data set with Salmonella typhimurium and against Escherichia coli was 1.5 µg/mL (≈ 3.92 µM) throughout.
In the data set on Bacillus cereus, `CCSc1ncc2c(n1)N=c1c(c3c(c4ccccc14)=Nc1nc(SCC)nc(O)c1S3)S2` showed a half-maximal inhibitory concentration (IC50) of 50.5 µg/mL (≈ 99.3 µM). The values for the MIC against Bacillus subtilis, in the data set on Aspergillus niger [2] and in the data set with Staphylococcus aureus [10] were 63.3 µg/mL (≈ 124 µM), 60.3 µg/mL (≈ 119 µM) and 39.8 µg/mL (≈ 78.2 µM), respectively.
On to `CN(C)CCCN1c2ccccc2Sc2cccnc21` [PROTHIPENDYL], for which the IC50 is ≥ 23 µg/mL in the data set on C32; ≥ 23 µg/mL in the data set with MCF7 [11]; ≥ 23 µg/mL with SNB-19; ≥ 23 µg/mL in the data set on HFF-1; 32.3 µg/mL (≈ 113 µM) in the data set with T47D.
Consider `Clc1nc2c(nc1Cl)Sc1ccccc1N2`, for which, in the data set with Ancylostoma caninum, the Activity came to 90%.
Consider `CN(C)CCCN1c2nc3ccccc3cc2Sc2cc3ccccc3nc21`, for which the IC50 in the data set with HOP-92 and in the data set with MCF7 [8] was ≤ 1000 nM each time.
In the case of `COc1ccc2c(c1)[S+]([O-])c1nccnc1N2C` (configuration not stated), the inhibition in vivo at 3 mg/kg in the data set on Rattus norvegicus [4] amounted to 12.5%.
On to `Cn1c(=O)nc2sc3ccccc3nc-2c1=O`, for which, in data set [12], half-maximal inhibition (IC50) was put at 1400 nM. Moreover, the survival in data set [13] was found to be 69%. For the same molecule, in the data set with Rattus norvegicus [14], the inhibition in vivo at 60 mg/kg worked out at 69%.
`C=CCN1c2cccnc2Sc2cccnc21` yielded an IC50 in the data set with SNB-19 of 18.9 µg/mL (≈ 78.3 µM).
On to `Oc1ccc2c(c1)Sc1nccnc1N2`, for which the inhibition in vivo at 5 mg/kg in the data set on Rattus norvegicus [3] came out at 47%. In the data set on Rattus norvegicus [4], the inhibition in vivo at 3 mg/kg was 43%. The same molecule registered an IC50 in data set [5] of 0.05 to 1 µg/mL (≈ 0.23 to 4.6 µM).
`COc1ccc2c(c1)Sc1nccnc1N2C` showed an inhibition at 3 µg/mL in the data set with Trachea of 71%. The molecule also came in with an IC50 in [5] of 1 to 5 µg/mL (≈ 4.08 to 20.4 µM).
